The values below come from ChEMBL document CHEMBL5241120, “Insights into the medicinal chemistry of heterocycles integrated with a pyrazolo[1,5-a]pyrimidine scaffold” (RSC Med Chem, 2022).

Each structure is given as a SMILES string. ≈ marks a conversion by molar mass, not a printed value.

In one series the test system is Penicillium chrysogenum. As to the kind of experiment: Antifungal activity against Penicillium chrysogenum. Format: functional.
Series [1] has as its system Bacillus subtilis. As to the kind of experiment: Antibacterial activity against Bacillus subtilis. Format: functional.
Series [2] deals with Bacillus subtilis. As to the kind of experiment: Antibacterial activity against Bacillus subtilis assessed as zone of inhibition. It is filed as functional.
Series [3] has as its system Escherichia coli. As to the kind of experiment: Antibacterial activity against Escherichia coli assessed as zone of inhibition. It is filed as functional.
Series [4] relates to Pseudomonas aeruginosa. As to the kind of experiment: Antibacterial activity against Pseudomonas aeruginosa. It is filed as functional.
The test system of series [5] is Staphylococcus aureus. Nature of the series: Antibacterial activity against Staphylococcus aureus. Format: functional.
Series [6] concerns Staphylococcus aureus. Nature of the series: Antibacterial activity against Staphylococcus aureus assessed as zone of inhibition. Format: functional.
A further series has as its system Fusarium oxysporum. Nature of the series: Antifungal activity against Fusarium oxysporum. Format: functional.
The subject of series [7] is Pseudomonas aeruginosa. As to the kind of experiment: Antibacterial activity against Pseudomonas aeruginosa assessed as zone of inhibition. Format: functional.
Series [8] has as its system Escherichia coli. As to the kind of experiment: Antibacterial activity against Escherichia coli. It is filed as functional.
For series [9], the system named is Panel NCI-60 (60 carcinoma cell lines). As to the kind of experiment: Cytotoxicity against human Panel NCI-60 (60 carcinoma cell lines). Format: functional. More on the design: concentration or dose not given beside the values.
Series [10] addresses Cyclin-dependent kinase 1 (Homo sapiens, UniProt P06493). As to the kind of experiment: Inhibition of CDK1 (unknown origin).
Series [11] concerns HCT-116. As to the kind of experiment: Cytotoxicity against human HCT-116 cells by MTT assay. It is filed as functional, cell-based.
Series [12] can be described thus: Cytotoxicity against human WI-38 cells by MTT assay. It is filed as toxicity, cell-based.
The subject of another series is Candida albicans. As to the kind of experiment: Antifungal activity against Candida albicans assessed as zone of inhibition at 5 mg/ml. It is filed as functional. The following applies: read-out: IZ.
The subject of another series is Enterococcus faecalis. As to the kind of experiment: Antibacterial activity against Enterococcus faecalis assessed as zone of inhibition at 5 mg/ml. Format: functional. The note with it: read-out: IZ.
Series [13] relates to Escherichia coli. As to the kind of experiment: Antibacterial activity against Escherichia coli assessed as zone of inhibition at 5 mg/ml. It is filed as functional. The note with it: read-out: IZ.
For the next series, the system named is Aspergillus flavus. Nature of the series: Antifungal activity against Aspergillus flavus assessed as zone of inhibition at 5 mg/ml. It is filed as functional. The following applies: read-out: IZ.
The next series deals with Streptococcus mutans. As to the kind of experiment: Antibacterial activity against Streptococcus mutans assessed as zone of inhibition at 5 mg/ml. The following applies: read-out: IZ. It is filed as functional.
Series [14] relates to Bacillus subtilis. Nature of the series: Antibacterial activity against Bacillus subtilis assessed as zone of inhibition at 5 mg/ml. Format: functional. The note with it: read-out: IZ.
A further series concerns MCF7. Nature of the series: Cytotoxicity against human MCF7 cells by MTT assay. Format: functional, cell-based.
The subject of another series is Proteus vulgaris. Nature of the series: Antibacterial activity against Proteus vulgaris assessed as zone of inhibition at 5 mg/ml. Format: functional. The following applies: read-out: IZ.
Series [15] has as its system Staphylococcus aureus. Nature of the series: Antibacterial activity against Staphylococcus aureus assessed as zone of inhibition at 5 mg/ml. It is filed as functional. The note with it: read-out: IZ.
The subject of the next series is HepG2. As to the kind of experiment: Cytotoxicity against human HepG2 cells by MTT assay. Format: functional, cell-based.
Series [16] concerns Aspergillus fumigatus. Nature of the series: Antifungal activity against Aspergillus fumigatus assessed as zone of inhibition at 5 mg/ml. It is filed as functional. The note with it: read-out: IZ.
In another series the test system is HEK293. As to the kind of experiment: Cytotoxicity against HEK293 cells. It is filed as functional, Homo sapiens.
The test system of series [17] is Aspergillus fumigatus. As to the kind of experiment: Antifungal activity against Aspergillus fumigatus. Format: functional.
Another series concerns Salmonella typhimurium. Nature of the series: Antibacterial activity against Salmonella typhimurium assessed as zone of inhibition. Format: functional, Salmonella enterica subsp. enterica serovar Typhimurium.
The next series relates to Klebsiella pneumoniae. As to the kind of experiment: Antibacterial activity against Klebsiella pneumoniae assessed as zone of inhibition. It is filed as functional.
A further series has as its system Geotrichum candidum. As to the kind of experiment: Antifungal activity against Geotrichum candidum assessed as zone of inhibition. It is filed as functional.
In series [18] the test system is Staphylococcus epidermidis. As to the kind of experiment: Antibacterial activity against Staphylococcus epidermidis assessed as zone of inhibition. Format: functional.
The next series concerns A549. Nature of the series: Cytotoxicity against human A549 cells by MTT assay. Format: functional, cell-based.
Another series concerns SiHa. Nature of the series: Cytotoxicity against human SiHa cells by MTT assay. It is filed as functional, cell-based.
Series [19] relates to HCT-116. As to the kind of experiment: Cytotoxicity against human HCT-116 cells. It is filed as functional.
Series [20] deals with Rattus norvegicus. As to the kind of experiment: Analgesic activity in Sprague-Dawley rat at 15 mg/kg after 1 hr by hot plate test. It is filed as functional.
For series [21], the system named is Rattus norvegicus. As to the kind of experiment: Analgesic activity in Sprague-Dawley rat at 15 mg/kg after 2 hrs by hot plate test. Format: functional.
In series [22] the target is T1, liver carboxylesterase (CES) (Sus scrofa, UniProt Q29550).
T1 sequence (Q29550 whole entry): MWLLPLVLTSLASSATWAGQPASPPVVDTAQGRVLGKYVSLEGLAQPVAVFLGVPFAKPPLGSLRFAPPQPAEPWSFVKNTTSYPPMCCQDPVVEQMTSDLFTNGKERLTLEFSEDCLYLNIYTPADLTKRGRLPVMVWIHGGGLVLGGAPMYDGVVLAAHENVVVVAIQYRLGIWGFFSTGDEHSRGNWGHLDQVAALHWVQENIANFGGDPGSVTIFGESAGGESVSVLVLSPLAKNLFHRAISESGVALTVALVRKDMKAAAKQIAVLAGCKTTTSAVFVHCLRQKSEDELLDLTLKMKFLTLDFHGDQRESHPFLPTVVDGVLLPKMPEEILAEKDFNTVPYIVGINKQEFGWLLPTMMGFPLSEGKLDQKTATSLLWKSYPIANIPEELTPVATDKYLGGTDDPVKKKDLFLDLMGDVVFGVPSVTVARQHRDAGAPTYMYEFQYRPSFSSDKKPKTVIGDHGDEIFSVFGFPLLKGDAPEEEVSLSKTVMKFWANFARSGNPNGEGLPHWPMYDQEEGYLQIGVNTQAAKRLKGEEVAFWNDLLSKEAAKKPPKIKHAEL
Nature of the series: Inhibition of pig liver CES at 20 uM relative to control. Format: tissue-based.

Series [23] is described as follows: Antioxidant activity assessed as ABTS radical scavenging activity. It is filed as functional.

Sequence of Cyclin-dependent kinase 1 (P06493 whole entry): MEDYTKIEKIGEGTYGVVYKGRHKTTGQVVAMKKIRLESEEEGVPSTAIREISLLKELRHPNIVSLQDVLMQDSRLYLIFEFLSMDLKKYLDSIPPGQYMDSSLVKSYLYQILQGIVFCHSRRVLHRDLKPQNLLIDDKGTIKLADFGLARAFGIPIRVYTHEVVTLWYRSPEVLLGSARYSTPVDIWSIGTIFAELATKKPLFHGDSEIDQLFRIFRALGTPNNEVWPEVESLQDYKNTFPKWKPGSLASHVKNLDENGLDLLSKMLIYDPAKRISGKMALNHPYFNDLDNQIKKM

Consider `COc1ccc(Nc2nn3c(-c4ccccc4)cc(-c4ccccc4)nc3c2C(N)=O)cc1`, for which the minimal inhibitory concentration (MIC) stood at 15.6 µg/mL (≈ 35.9 µM) in the series on Penicillium chrysogenum; 3.9 µg/mL (≈ 8.96 µM) in the series with Bacillus subtilis [1]; 15.6 µg/mL (≈ 35.9 µM) in the series with Pseudomonas aeruginosa [4]; 7.81 µg/mL (≈ 17.9 µM) in the series with Staphylococcus aureus [5]; 7.81 µg/mL (≈ 17.9 µM) in the series with Fusarium oxysporum; 3.9 µg/mL (≈ 8.96 µM) against Escherichia coli [8]. The “inhibition zone (IZ)” value in the series on Bacillus subtilis [2] came out at 12 mm; with Escherichia coli [3], 13 mm; in the series with Staphylococcus aureus [6], 9 mm; with Pseudomonas aeruginosa [7], 10 mm.

Take `COc1ccc(Nc2nn3c(-c4ccccc4)cc(-c4ccccc4)nc3c2C(N)=O)c(OC)c1`: the Activity in series [9] is given as 48.5%. Further, the 50% inhibitory concentration (IC50) in series [10] was 161 nM; in the series on HCT-116 [11] it was 6280 nM; in series [12], 17700 nM.

Regarding `Cc1cc(C)nc(NS(=O)(=O)c2ccc(/N=N/c3c(N)nc4c(/N=N/c5ccc(C(F)(F)F)cc5)c(N)nn4c3N)cc2)n1`, the zone of inhibition at 5000 µg/mL with Candida albicans was determined as 13 mm; in the series on Enterococcus faecalis it was 25 mm; in the series on Escherichia coli [13] it was 13 mm; in the series on Aspergillus flavus, 13 mm; in the series on Streptococcus mutans it was 13 mm; in the series on Bacillus subtilis [14] it was 13 mm. Also, the zone of inhibition at 5000 µg/mL is 40 mm in the series with Proteus vulgaris, 13 mm in the series with Staphylococcus aureus [15] and 13 mm in the series with Aspergillus fumigatus [16]. For the same compound, the figures for the half-inhibitory concentration (IC50) in the series with HCT-116 [11], with MCF7 and in the series on HepG2 were 2.7 µg/mL, 4.5 µg/mL (≈ 7.19 µM) and 3.9 µg/mL (≈ 6.23 µM), respectively.

In the case of `COc1ccc(-c2ccnc3cc(-c4ccccc4)nn23)cc1`, the Activity in the series on HEK293 stood at 48%.

`COc1ccc(Nc2nn3c(N)c(C#N)c(-c4ccccc4)nc3c2C(N)=O)cc1` displayed an MIC with Aspergillus fumigatus [17] of 15.6 µg/mL (≈ 39.1 µM).

`Nc1nn2c(-c3ccc(S(=O)(=O)c4ccccc4)cc3)ccnc2c1/N=N/c1ccccc1Cl`: the “inhibition zone (IZ)” value worked out at 26.2 mm with Salmonella typhimurium; 26.6 mm with Klebsiella pneumoniae; 25.7 mm in the series with Escherichia coli [3]; 25.2 mm in the series on Geotrichum candidum; 22.6 mm in series [18].

`Clc1ccc(-c2cc3nccc(-c4ccc(Cl)cc4)n3n2)cc1`: the Activity with HEK293 turned out to be 44.2%.

Take `COc1ccc(-c2cc(-c3nn4cc(-c5ccncc5)cnc4c3S(=O)(=O)c3cc([N+](=O)[O-])c(OC)c([N+](=O)[O-])c3)on2)cc1`: the IC50 stood at 54 nM with A549 and 80 nM in the series with SiHa.

Take `COc1ccc(-c2ccnc3cc(-c4ccc(Cl)cc4)nn23)cc1`: the Activity in the series on HCT-116 [19] is given as 37%.

Take `CC1=Nc2cc(-c3ccccc3)nn2C(=O)/C1=N\Nc1ccc(C)cc1`: the Activity in the series on Rattus norvegicus [20] stood at 43.9%; in the series on Rattus norvegicus [21], 65.9%; in series [23], 0.21 µM. In [22], this compound gave an inhibition at 20 µM of 22.8%.
